Where no end group is shown, it is not given here.
Key:
[1] = system: HA(107-119) TCR transgenic Foxp3GFP-reporter T cells; assay: in vivo HA-specific Treg conversion, congenic adoptive-transfer system; set-up: species or system mouse; details: injection of mTOR-inhibitor
Procedure: (b) In vivo conversion of naïve CD4+CD25-T cells expressing a transgenic TCR of interest into Treg cells using a congenic transfer system. HA(107-119)TCR transgenic CD4+/Foxp3-/GFP Thy1.1+ cells are transferred iv into a host such as a Balb/c thy1.2+ mouse. A to single dose of a covalent conjugate of […] fusion antibody is administered ip. Analysis of Foxp3 expression in CD4-enriched Thy1.1+ spleenocytes and lymph nodes is conducted after 14 days flow cytometrically.
For the exploitation of antigen-specific Treg induction to interfere with unwanted immunity as diabetes the inventors performed optimization studies in order to achieve stable de novo differentiation of naive T cells into Tregs in sufficient numbers. Therefore we aimed at using combinations of compounds that enhance conversion, selectively expand the generated Tregs and allow for maintenance of the Treg phenotype. […] To induce rapid expansion of these Tregs the inventors injected the mice with IL-2 mixed with an optimized amount of a particular IL-2 monoclonal antibody (IL-2/IL-2 ab complexes) for a short period of 3 days at the end of the conversion period. […] Moreover, these Tregs were stable and persisted over a period of 4 months, which is an important feature as it allows for prospective induction to suppress unwanted immune responses.

IAu = molecular target: T1, IAu (Mus musculus, UniProt P06344+P14438); details: presented by IAu; cited from earlier work
T1 sequence (P14438 1-227): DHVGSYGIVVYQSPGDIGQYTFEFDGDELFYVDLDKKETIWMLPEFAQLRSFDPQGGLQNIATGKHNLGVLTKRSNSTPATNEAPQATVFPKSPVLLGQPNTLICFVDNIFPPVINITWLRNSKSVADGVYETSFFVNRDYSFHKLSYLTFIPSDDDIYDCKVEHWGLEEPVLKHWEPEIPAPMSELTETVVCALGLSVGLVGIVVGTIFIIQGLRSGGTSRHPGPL
T1 sequence (P06344 28-263): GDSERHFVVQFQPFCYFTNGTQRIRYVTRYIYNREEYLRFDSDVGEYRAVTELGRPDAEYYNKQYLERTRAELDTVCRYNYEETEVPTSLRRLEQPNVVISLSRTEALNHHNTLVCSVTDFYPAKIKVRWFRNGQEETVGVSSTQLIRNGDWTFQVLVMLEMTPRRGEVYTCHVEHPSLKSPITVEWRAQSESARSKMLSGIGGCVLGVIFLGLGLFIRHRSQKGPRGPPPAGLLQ

IAg^7 [2] = assay: peptide binding to MHC class II IAg7; set-up: species or system mouse; details: MHC class II IAg^7
Text: The natural Insulin B:9-23 peptide is known to be associated with Type I diabetes. This peptide binds with poor affinity to IAg^7 in multiple binding registers.
Chromogranin A was recently identified as the antigenic source of the highly pathogenic BDC2.5 T cell clone associated with Type I diabetes. WE14 is naturally processed from Chromogranin A by a furin-like protease. […] Studies have shown that this epitope only partially fills the peptide binding groove.
(§1) The inventors performed similar protocols of antigen-specific Treg conversion studies to prevent the development of spontaneous diabetes in NOD mice by injecting DEC205 fusion antibodies that contain the beta chain of insulin. […] The inventors hypothesized that weak epitopes may fail to induce efficient Treg conversion, and we initiated studies using Insulin B:9-23 TCR transgenic mice and identified in T cell proliferation assays insulin mimetopes that stimulate better than the Insulin B:9-23 peptide itself because of an increased binding capacity to MHC class II IAg^7, compared to the aforementioned Insulin B:9-23 peptide. In fact such mimetopes achieved better conversion of naive T cells expressing the transgenic TCR. […]

NOD InsB:9-23 Tg T cells = assay: thymidine incorporation T cell proliferation assay; assay type: cell-based, mouse; details: Insulin B:9-23 TCR transgenic T cells
Text: A key feature of the adaptive immune response is the ability of antigen-specific T cells to rapidly proliferate following antigenic-stimulation. Assays to assess the proliferative activity of antigen-specific T cells are a core tool to allow for evaluation of TCR- and MHC-binding properties based on the growth rate of the T cell populations after stimulation with a defined amount of antigen. A historically established assay is the detection of tritiated thymidine ^3H uptake. Therefore CD4+ T-cells from Rag def. NOD mice expressing a transgenic TCR for the a peptide of interest (e.g., Insulin B 9:23 peptide) are isolated by the use of a magnetic bead separation approach. Purified CD11^+DCs from normal NOD mice are used as antigen-presenting cells and irradiated. To induce proliferation of antigen-specific CD4^+ T cells, co-cultures are set up with naïve Insulin-specific CD4^+ T cells in 200 μl RPMI1640 medium supplemented with 10% (vol/vol) FCS in 96-well round-bottomed plates. Soluble peptides (e.g., natural InsulinB9:23 peptide) or mimetopes (e.g., Insulin mimetopes) are added to the cultures in various concentration (10 μg/ml to 0.01 μg/ml). Analysis of proliferation of antigen-specific T cells is performed by incorporation of ^3H-thymidine added for the last 12 hours of a 70 hours culture period followed by scintillation counting. […]

[3] = system: T cells with a specific transgenic TCR for the K^d54-68 peptide; details: cited from earlier work
BDC2.5 T cells = details: cited from earlier work
IAg^7 [4] = details: cited from earlier work
NOD mice = assay: prevention of spontaneous diabetes in NOD mice; assay type: in vivo, mouse; details: injection into young NOD mice
Text: The inventors have been successful in inducing HY-specific Treg from naIve T cells in wt female B6 mice that were infused with HY-peptide and visualized with HY-peptide, class II tetramers (1). However, a similar approach to prevent diabetes in NOD mice by injecting insulin B:9-23 peptide into young NOD mice failed.
as §1, with “TCR. The inventors then studied the impact of these insulin-derived mimetopes in young NOD mice on diabetes development via subimmunogenic peptide delivery using either newly designed DEC205 peptide fusion antibodies (see description below) or peptide-infusing mini-osmotic pumps.” for “TCR.”

Q: Which “frequency of newly generated HA-specific Foxp3+ Tregs” value [1] does the source give for CO[C@H]1C[C@@H]2CC[C@@H](C)[C@@](O)(O2)C(=O)C(=O)N2CCCC[C@H]2C(=O)O[C@H]([C@H](C)C[C@@H]2CC[C@@H](OCCO)[C@H](OC)C2)CC(=O)[C@H](C)/C=C(\C)[C@@H](O)[C@@H](OC)C(=O)[C@H](C)C[C@H](C)/C=C/C=C/C=C/1C [Everolimus] here?
A: substantially increases

Q: For “Act-11 MBP: SEQ ID NO: 8, Ac-ASQKRPSQRHG; acetylated N-terminal myelin basic protein epitope”, which epitope strength (IAu) is on record?
A: weak epitope

Q: For “InsMim3 peptide mimetope: SEQ ID NO: 2, VEALYLVCGEEG; insulin mimetope, p9 Arginine exchanged to Glutamic acid (InsMim3 peptide mimetope)”, which “MHC binding compared with natural Insulin B:9-23 peptide” value (IAg^7 [2]) is on record?
A: enhanced MHC binding

Q: And the “stimulation of T cells compared with natural Insulin B:9-23 peptide” value (NOD InsB:9-23 Tg T cells)?
A: better stimulation of T cells

Q: Which results are given for “K^d54-68 peptide: SEQ ID NO: 6, QEGPEYWEEQTQRAK; MHC class I derived processed peptide presented by IAb (Kd 54-68 peptide)”?
A: agonist strength ([3]; MHC-derived transplantation antigen): weak agonist; proliferation of specific TCR transgenic T cells ([3]; dendritic cells pulsed with peptide): not able to stimulate the proliferation

Q: With “WE14: SEQ ID NO: 4, WSRMDQLAKELTAE; naturally processed from Chromogranin A (WE14 peptide)” as the compound, how does the “stimulation of BDC2.5 T cells” value (BDC2.5 T cells) read?
A: poor stimulation

Q: And the “binding to IAg^7 (MHC-binding)” value (IAg^7 [4])?
A: weakly

Q: Which results are given for “natural Insulin B:9-23 peptide: SEQ ID NO: 1, SHLVEALYLVCGERG; natural peptide associated with Type I diabetes (Insulin B peptide)”?
A: binding to IAg^7 (MHC-binding) (IAg^7 [4]): poor affinity; prevention of diabetes (NOD mice): failed

Q: What does the source list for “pS3 peptide: SEQ ID NO: 5, RLGLWVRME; strong stimulating mimetope of WE14 (pS3 peptide mimetope)”?
A: stimulation of BDC2.5 T cells (BDC2.5 T cells): strong stimulating mimetope; binding to IAg^7 (MHC-binding) (IAg^7 [4]): improved MHC-binding

Source: patent US20160175412A1, “PREVENTION OF TYPE 1 DIABETES BY TREG VACCINATION WITH AN INSULIN MIMETOPE” (DANA-FARBER CANCER INSTITUTE, INC., priority 2010, published 2016)
